Test results published in US4008219A, “4-Benzazonine derivatives and process for preparation thereof” (Nihon Iyakuhin Kogyo Co., Ltd., priority 1973, dated 1977).

What was measured:
[1] = Acute Toxicity; settings: in vivo; mouse, intravenous injection
Experimental: (§1) Tested Animal: mice of the ddN-series, .male., 20 ± 1 experimental
(§2) Conditions: temperature of 24 ± 1° C., relative humidity of 65

[2] = test system: mice of the ddN-series; experiment: Analgesic test, Pressure Stimulus Method; format: in vivo, mouse; settings: hypodermic injection, comparative value, pentazocine 1.0
Experimental: (§3) Results of comparative tests where the medicinal effects of compounds of this invention were compared with those of known compounds such as pentazocine and codeine phosphate by employing mice and guinea pigs as the test animals are shown in the following Tables I and II.
Pressure Stimulus Method^3)
R (hypodermic injection)
as §1, §2
^3) A. F. Green, P. A. Yound and E. I. Godfrey; British Journal of
Pharmacology and Chemotherapy, 6, 572 (1951)

[3] = test system: guinea pigs; experiment: Antitussive effect, Chemical Stimulus Method (SO2 gas); format: in vivo, guinea pig; settings: guinea pigs, SO2 gas
Description: as §3
(§4) Comparison of Antitusive Effects
2) Takagi et al modification [Journal of Pharmaceutical Society of Japan,
80, 1497 (1960)] of the test method of H. Friebel, C. Reichle and A. V.
Gravenitz [Archiv Fur experimentalle Phathologie und Pharmakologie,
Naunyn-Schmiede-berg's, 224,384 (1955)], in which the test compound was
hypodermically injected into guinea pigs, 30 minutes after the injection
the quinea pigs were put into a desiccator filled with SO2 gas and
kept in the desiccator for 1 minute, then the guinea pigs were put into
another vessel and the degree of coughing was examined.

[4] = test system: guinea pigs; experiment: Antitussive effect, Mechanical Stimulus Method; format: in vivo, guinea pig
Description: as §3, §4
Mechanical Stimulus Method^1)
1) Takagi et al modification [Journal of the Pharmaceutical Society of
Japan, 80, 1497 (1960)] of the test method of H. Konzett and E. Rothlin
[Experientia, 10, 472 (1954)], in which urethane was hypodermically
injected (15 mg/Kg) into guinea pigs and swine hairs were inserted into
the trachea to impart stimulus.

[5] = test system: mice of the ddN-series; experiment: Analgesic test, Chemical Stimulus Method (Writhing Method); format: in vivo, mouse; design: scale not given here; settings: interabdominal injection, comparative value, scale not given
Experimental: as §3
Chemical Stimulus Method^1)
(interabdominal injection)
as §1, §2
^1) R. Koster, M. Anderson and E. J. De Beer, Federation Proceedings, […]

[6] = test system: mice of the ddN-series; experiment: Analgesic test, Heat Stimulus Method (Hot Plate Method); format: in vivo, mouse; design: reference not given here; settings: hypodermic injection, comparative value, scale not given
Experimental: as §3
Heat Stimulus Method^2)
as §1, §2
^2) G. Woolfe and A. D. Mac Donald; Journal of Pharmacology and […]

[7] = Solubility in water

C=CCN1CCC2CC(C1)C(O)c1ccccc12 (stereo not drawn) [R=H, R1=H, R2=H, CH2R3=CH2CHCH2, R4=OH, 4-allyl-2,3,4,5,6,7-hexahydro-1,6-methano-1H-4-benzazonin-7-ol]
LD50 [1]: 58 mg/kg
Pressure Stimulus Method [2]: 1.4
ED50 ([3]; Cavia porcellus, sc, 0.5 h, hypodermic injection, 1 minute, 30 minutes after injection, read-out: ED50, Chemical Stimulus Method (antitussive)): 15.3 mg/kg
Effect Ratio to Codeine Phosphate, Chemical Stimulus Method ([3]; codeine phosphate = 100): 86.7
ED50 ([4]; Cavia porcellus, swine hairs inserted into the trachea): 18.9 mg/kg
Effect Ratio to Codeine Phosphate, Mechanical Stimulus Method ([4]; codeine phosphate = 100): 76.6
Chemical Stimulus Method (Writhing Method) [5]: 1.2
Heat Stimulus Method (Hot Plate Method) [6]: 1.4
solubility in water [7]: water soluble
